The record followed here is US7442802B2, “Cyclooxygenase-2 selective inhibitors, compositions and methods of use” (NitroMed, Inc., priority 2002, dated 2008).

One assay addresses T1, COX-1 (Homo sapiens, UniProt P23219).
T1 construct: endogenous in cells; host or cells: heparinised human whole blood from donors, stimulated with the calcium ionophore A23187
Kind of assay: Human COX-1 enzyme activity in human whole blood (A23187-stimulated, thromboxane B2 EIA). To be noted: 100 μM, human whole blood, A23187 stimulation; for inhibition at 100 µM: read-out: COX-1 Inhibition (% at 100 μM). In kind it is cell-based. As to the method: (§1) The blood was transported to the laboratory on ice packs and used within 1.5 hours of collection. Upon receipt in the laboratory, the blood was allowed to come to room temperature for 15 minutes prior to distribution in 1 mL aliquots per well of 24 well tissue culture plates. […] Test compounds were dissolved in DMSO, at 1000 fold the final desired concentration, and further diluted, as indicated, in DMSO. One μL of each dilution of the test compound was added per well, in duplicate wells; wells not receiving test compound (e.g., basal, background or control wells) received 1 μL DMSO. […] Louis, Mo., Catalogue No. […] Louis, Mo., Catalogue No. […] (Again, basal, background or control wells not stimulated with A23187 received 1 μL of DMSO.) At 5 hours after the addition of the test compound, all incubations were terminated by placement on ice and the addition of 2 mM EGTA (100 μL of 20 mM EGTA, tetrasodium, in PBS (phosphate buffered saline) without Ca^++ and Mg^++, pH 7.2)). […] One hundred μL of plasma was removed from each blood sample and added to 1 mL of methanol in new 15 mL polypropylene centrifuge tubes, vortexed, and stored overnight at -20° C. […] The samples were assayed for thromboxane B2 using EIA kits supplied by Cayman Chemical Co. […] The % inhibition for COX-1 and COX-2 enzyme activity in human whole blood by the test compounds, at the indicated concentrations, are given in Table 1.

The target of a further assay is T2, COX-2 (Homo sapiens, UniProt P35354).
T2 construct: To induce COX-2, lipopolysaccharide (LPS) from E. coli; endogenous in cells; host or cells: heparinised human whole blood from donors, with COX-2 induced by E. coli LPS
T2 sequence (P35354 18-604): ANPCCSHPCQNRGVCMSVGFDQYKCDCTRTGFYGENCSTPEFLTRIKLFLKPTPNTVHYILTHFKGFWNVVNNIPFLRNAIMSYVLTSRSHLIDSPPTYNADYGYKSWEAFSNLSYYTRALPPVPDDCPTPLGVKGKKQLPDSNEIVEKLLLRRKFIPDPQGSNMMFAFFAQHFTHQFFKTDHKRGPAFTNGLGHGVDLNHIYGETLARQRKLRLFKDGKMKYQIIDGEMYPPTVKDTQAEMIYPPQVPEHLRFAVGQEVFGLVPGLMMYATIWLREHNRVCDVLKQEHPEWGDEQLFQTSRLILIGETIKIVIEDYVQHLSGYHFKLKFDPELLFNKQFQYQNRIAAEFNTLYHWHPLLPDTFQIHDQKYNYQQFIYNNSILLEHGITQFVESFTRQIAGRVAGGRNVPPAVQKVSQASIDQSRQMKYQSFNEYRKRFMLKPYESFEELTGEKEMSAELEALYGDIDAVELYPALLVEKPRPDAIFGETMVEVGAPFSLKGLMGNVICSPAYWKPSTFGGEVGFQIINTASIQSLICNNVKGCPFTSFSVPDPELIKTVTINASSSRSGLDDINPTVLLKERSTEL
Description: Human COX-2 enzyme activity in human whole blood (LPS-induced, thromboxane B2 EIA). The class given is cell-based. To be noted: human whole blood, LPS induction; for inhibition at 1 µM: read-out: COX-2 Inhibition (% at 1 μM); for inhibition at 10 µM: read-out: COX-2 Inhibition (% at 10 μM). The protocol: as §1

T1 sequence (P23219 24-599): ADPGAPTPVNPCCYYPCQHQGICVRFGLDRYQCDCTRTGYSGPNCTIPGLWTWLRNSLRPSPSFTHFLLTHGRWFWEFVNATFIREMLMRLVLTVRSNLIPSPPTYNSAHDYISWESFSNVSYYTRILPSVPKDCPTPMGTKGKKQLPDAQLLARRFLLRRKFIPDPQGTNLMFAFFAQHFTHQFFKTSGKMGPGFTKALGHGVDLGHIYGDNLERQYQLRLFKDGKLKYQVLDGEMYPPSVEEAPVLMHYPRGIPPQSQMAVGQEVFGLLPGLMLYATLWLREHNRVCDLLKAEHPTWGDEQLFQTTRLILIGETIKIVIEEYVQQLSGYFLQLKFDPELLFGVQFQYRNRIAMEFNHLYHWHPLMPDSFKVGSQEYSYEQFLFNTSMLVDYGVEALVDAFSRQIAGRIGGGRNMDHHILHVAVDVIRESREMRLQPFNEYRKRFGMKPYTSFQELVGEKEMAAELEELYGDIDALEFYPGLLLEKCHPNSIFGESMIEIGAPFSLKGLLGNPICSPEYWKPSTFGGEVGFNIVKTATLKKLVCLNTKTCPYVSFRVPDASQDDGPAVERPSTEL

In general, inhibition refers to the relative decrease from the control value, in per cent. As for `CS(=O)(=O)c1ccc(-c2cc(COCCCO)nn2-c2ccc(F)cc2)cc1` [Example 18d, 1-(1-(4-Fluorophenyl)-3-((3-hydroxypropoxy)methyl)pyrazol-5-yl)-4-(methylsulfonyl)benzene], on COX-1, the inhibition at 100 µM stood at 40%. Besides, at COX-2, the inhibition at 1 µM was determined as 45% and the inhibition at 10 µM amounted to 90%.

Take `CS(=O)(=O)c1ccc(-c2cc(/C=C\CCO)nn2C2CCCCC2)cc1` [Example 4e, 1-(3-((1Z)-4-(Hydroxy)but-1-enyl)-1-cyclohexylpyrazol-5-yl-4-methylsulfonyl)benzene]: the “COX-1 Inhibition (% at 100 μM)” value at COX-1 was 45%. Moreover, on COX-2, the “COX-2 Inhibition (% at 1 μM)” value is 30% and the “COX-2 Inhibition (% at 10 μM)” value is on record as 70%.

`NS(=O)(=O)c1ccc(-c2c(-c3ccccc3)noc2COCCCO)cc1` [Example 26a]: at COX-1, the “COX-1 Inhibition (% at 100 μM)” value is recorded as 25%. In addition, on COX-2, the “COX-2 Inhibition (% at 1 μM)” value worked out at 50% and the “COX-2 Inhibition (% at 10 μM)” value turned out to be 85%.

On to `CS(=O)(=O)c1ccc(-c2cc(CCCC(=O)OCCCO[N+](=O)[O-])nn2-c2ccc(C(F)(F)F)cc2)cc1` [Example 47f, 3-(Nitrooxy)propyl 4-(5-(4-(methylsulfonyl)phenyl)-1-(4-(trifluoromethyl)-phenyl)pyrazol-3-yl)butanoate], for which the inhibition at 100 µM at COX-1 amounted to 85%. On COX-2, the inhibition at 1 µM was 30% and the inhibition at 10 µM was determined as 65%.

Turning to `CS(=O)(=O)c1ccc(-c2cc(C(=O)CCCCCO)nn2C2CCCCC2)cc1` [Example 22c, 1-(1-Cyclohexyl-5-(4-(methylsulfonyl)phenyl)-pyrazol-3-yl)-6-hydroxyhexan-1-one], the inhibition at 100 µM on COX-1 worked out at 40%. At COX-2, the inhibition at 1 µM is 25% and the inhibition at 10 µM amounted to 80%.

As for `CS(=O)(=O)c1ccc(-c2cc(CO[N+](=O)[O-])nn2C2CCCCCCC2)cc1` [Example 1h], the “COX-1 Inhibition (% at 100 μM)” value at COX-1 is recorded as 60%. In addition, at COX-2, the “COX-2 Inhibition (% at 1 μM)” value is 50% and the “COX-2 Inhibition (% at 10 μM)” value is recorded as 90%.

In the case of `CS(=O)(=O)c1ccc(-c2cc(CO)nn2C2CCCCCC2)cc1` [Example 2c, 1-(1-Cycloheptyl-3-(hydroxymethyl)pyrazol-5-yl)-4-(methylsulfonyl)benzene], the inhibition at 100 µM on COX-1 is 40%. Also, on COX-2, the inhibition at 1 µM turned out to be 10% and the inhibition at 10 µM is 25%.

For `NS(=O)(=O)c1ccc(-c2c(-c3ccccc3)noc2COCCCO[N+](=O)[O-])cc1` [Example 26b], the “COX-1 Inhibition (% at 100 μM)” value on COX-1 turned out to be 70%. For the same compound, at COX-2, the “COX-2 Inhibition (% at 1 μM)” value was 55% and the “COX-2 Inhibition (% at 10 μM)” value is recorded as 100%.

As to `CS(=O)(=O)c1ccc(-c2cc(/C=C/CO[N+](=O)[O-])nn2C2CCCCC2)cc1` [Example 41, 1-(3-((1E)-3-(Nitrooxy)prop-1-enyl)-1-cyclohexylpyrazol-5-yl)-4-(methylsulfonyl)benzene], on COX-1, the inhibition at 100 µM was 40%. In addition, at COX-2, the inhibition at 1 µM was found to be 0% and the inhibition at 10 µM was 45%.

As for `NS(=O)(=O)c1ccc(-c2c(-c3ccccc3)noc2COCC(F)(F)C(F)(F)CO)cc1` [Example 33a], the “COX-1 Inhibition (% at 100 μM)” value on COX-1 amounted to 75%. Further, on COX-2, the “COX-2 Inhibition (% at 1 μM)” value is listed as 40% and the “COX-2 Inhibition (% at 10 μM)” value is on record as 100%.

In the case of `CS(=O)(=O)c1ccc(-c2cc(C(=O)CCCO)nn2-c2ccc(C(F)(F)F)cc2)cc1` [Example 23d, 4-Hydroxy-1-(5-(4-(methylsulfonyl)phenyl)-1-(4-(trifluoromethyl)-phenyl)pyrazol-3-yl)butan-1-one], the inhibition at 100 µM on COX-1 was -20%. Besides, at COX-2, the inhibition at 1 µM stood at 0% and the inhibition at 10 µM turned out to be 10%.

As for `CS(=O)(=O)c1ccc(-c2cc(/C=C/CCO[N+](=O)[O-])nn2C2CCCCC2)cc1` [Example 21c, 1-(3-((1E)-4-(Nitrooxy)but-1-enyl)-1-cyclohexylpyrazol-5-yl)-4-(methylsulfonyl)benzene], on COX-1, the inhibition at 100 µM was found to be 60%. Further, at COX-2, the inhibition at 1 µM was found to be 45% and the inhibition at 10 µM was 90%.

As for `CS(=O)(=O)c1ccc(-c2cc(COCCCO[N+](=O)[O-])nn2-c2ccc(F)cc2)cc1` [Example 18e, 1-(1-(4-Fluorophenyl)-3-((3-(nitrooxy)propoxy)methyl)pyrazol-5-yl)-4-(methylsulfonyl)benzene], the inhibition at 100 µM at COX-1 was determined as 80%. Also, at COX-2, the inhibition at 1 µM stood at 55% and the inhibition at 10 µM was 95%.

For the compound `COc1ccc(-n2nc(COCCCO)cc2-c2ccc(S(C)(=O)=O)cc2)cc1` [Example 10d, 1-(3-((3-Hydroxypropoxy)methyl)-1-(4-methoxyphenyl)pyrazol-5-yl)-4-(methylsulfonyl)benzene], on COX-1, the inhibition at 100 µM is 100%. In addition, on COX-2, the inhibition at 1 µM came out at 25% and the inhibition at 10 µM was 100%.

As for `CS(=O)(=O)c1ccc(-c2cc(COCCCO)nn2-c2ccccc2)cc1` [Example 5d, 4-(3-((3-Hydroxypropoxy)methyl)-1-phenylpyrazol-5-yl)-1-(methylsulfonyl)benzene], the inhibition at 100 µM at COX-1 was determined as 25%. On COX-2, the inhibition at 1 µM is 20% and the inhibition at 10 µM was determined as 80%.

For `CS(=O)(=O)c1ccc(-c2cc(/C=C/CCO[N+](=O)[O-])nn2-c2ccccc2)cc1` [Example 11f, 1-(3-((1E)-4-(Nitrooxy)but-1-enyl)-1-phenylpyrazol-5-yl)-4-(methylsulfonyl)benzene], the inhibition at 100 µM on COX-1 was 85%. For the same compound, on COX-2, the inhibition at 1 µM was determined as 55% and the inhibition at 10 µM is 90%.

As to `NS(=O)(=O)c1ccc(-c2c(-c3ccccc3)noc2COCCO[N+](=O)[O-])cc1` [Example 27b], the “COX-1 Inhibition (% at 100 μM)” value at COX-1 is given as 65%. Besides, at COX-2, the “COX-2 Inhibition (% at 1 μM)” value came out at 50% and the “COX-2 Inhibition (% at 10 μM)” value is recorded as 100%.

On to `NS(=O)(=O)c1ccc(-c2cc(C(=O)CCCO)nn2C2CCCCC2)cc1` [Example 43g, 4-(1-Cyclohexyl-3-(4-hydroxybutanoyl)pyrazol-5-yl)benzenesulfonamide], for which, at COX-1, the inhibition at 100 µM worked out at 30%. Further, at COX-2, the inhibition at 1 µM worked out at 0% and the inhibition at 10 µM is 10%.

Take “4-(5-(4-Chlorophenyl)-3-((3-hydroxypropoxy)methyl)pyrazolyl)-benzenesulfonamide [Example 36b]”: the “COX-1 Inhibition (% at 100 μM)” value on COX-1 stood at 30%. On COX-2, the “COX-2 Inhibition (% at 1 μM)” value amounted to 30% and the “COX-2 Inhibition (% at 10 μM)” value was 55%.

`CS(=O)(=O)c1ccc(-c2cc(/C=C/CO)nn2C2CCCCC2)cc1` [Example 31c, 4-(3-((1E)-3-Hydroxyprop-1-enyl)-1-cyclohexylpyrazol-5-yl)-1(methylsulfonyl)benzene]: the inhibition at 100 µM at COX-1 was determined as 10%. Moreover, on COX-2, the inhibition at 1 µM amounted to 0% and the inhibition at 10 µM was found to be 15%.

Turning to `NS(=O)(=O)c1ccc(-c2c(-c3ccccc3)noc2COCCO)cc1` [Example 27a], the “COX-1 Inhibition (% at 100 μM)” value on COX-1 was 45%. Also, at COX-2, the “COX-2 Inhibition (% at 1 μM)” value worked out at 40% and the “COX-2 Inhibition (% at 10 μM)” value is on record as 90%.

`Cc1ccc(-n2nc(COCCCO)cc2-c2ccc(S(C)(=O)=O)cc2)cc1` [Example 8d, 1-(3-((3-Hydroxypropoxy)methyl)-1-(4-methylphenyl)pyrazol-5-yl)-4-(methylsulfonyl)benzene]: the inhibition at 100 µM at COX-1 was determined as 70%. For the same compound, on COX-2, the inhibition at 1 µM was 20% and the inhibition at 10 µM came out at 90%.

Take `CS(=O)(=O)c1ccc(-n2nc(/C=C\CCO)cc2-c2cccnc2)cc1` [Example 25e, 1-(3-((1Z)-4-Hydroxybut-1-enyl)-5-(3-pyridnyl)pyrazolyl)-4-(methylsulfonyl)benzene]: the “COX-1 Inhibition (% at 100 μM)” value on COX-1 is reported as 10%. At COX-2, the “COX-2 Inhibition (% at 1 μM)” value was 15% and the “COX-2 Inhibition (% at 10 μM)” value is given as 0%.
